From paper PMC9586930, “Molecular insights into the distinct signaling duration for the peptide-induced PTH1R activation” (Nature Communications, 2022)
Non-standard residues stand in square brackets, D forms with d. Residues, ends and D or L forms follow the SMILES beside them. No end group written: not given here. Aib = CC(C)(N)C(=O)O

Molecular target: T1, WT PTH1R (Homo sapiens, UniProt Q03431)
T1 construct: a flag-tag was fused to the N terminal of full-length PTH1R (WT or mutant); expressed in transfected cells; host or cells: HEK293T
T1 sequence (Q03431 27-593): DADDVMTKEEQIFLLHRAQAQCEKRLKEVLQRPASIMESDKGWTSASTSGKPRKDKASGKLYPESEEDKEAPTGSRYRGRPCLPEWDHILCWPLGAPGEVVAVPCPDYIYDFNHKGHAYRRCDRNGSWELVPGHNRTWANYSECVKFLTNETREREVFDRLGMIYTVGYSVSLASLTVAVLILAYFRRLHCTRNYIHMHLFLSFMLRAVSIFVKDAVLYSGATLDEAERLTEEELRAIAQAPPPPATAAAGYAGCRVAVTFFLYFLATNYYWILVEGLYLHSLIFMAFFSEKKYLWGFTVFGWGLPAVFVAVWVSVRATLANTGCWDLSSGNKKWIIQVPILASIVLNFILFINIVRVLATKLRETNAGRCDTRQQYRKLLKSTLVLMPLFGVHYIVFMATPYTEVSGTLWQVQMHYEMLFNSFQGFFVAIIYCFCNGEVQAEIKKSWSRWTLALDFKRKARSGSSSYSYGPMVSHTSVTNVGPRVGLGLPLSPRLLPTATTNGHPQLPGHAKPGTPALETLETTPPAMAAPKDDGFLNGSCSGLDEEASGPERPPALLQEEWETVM
Experiment: cAMP accumulation assay (GloSensor), wild-type PTH1R
Type: cell-based
Conditions: HEK293T cells; for Emax: from curve fitting dose-response data; for EC50: half-maximal stimulatory concentration from curve fitting dose-response data
Description: Human embryonic kidney 293 T (HEK293T, ATCC: CRL-1573) cells were transfected with a plasmid mixture consisting of pcDNA3.1-flag-PTH1R (WT or mutants) and the cAMP biosensor GloSensor-22F (Promega) at a ratio of 2:1 (see Supplementary Table 7 for a list of primers used in this study). After 24 h, transfected cells were plated onto a 384-well plate, which was treated with cell adherent reagent (Applygen) in advance. After another 12 h, cells were treated with Hank’s balanced salt solution for starvation and then incubated in CO2-independent media containing 4% GloSensor cAMP Reagent (Promega) at a volume of 5 μl per well and incubated for 20 min at RT before measurements for baseline luminescence (Spark Multimode microplate reader, TECAN). Next, test ligands were added at different concentrations from 10^−6 to 10^−13 M before second measurement. Finally, data were normalized to 100% of the maximal PTH (1-34) response for WT PTH1R using a sigmoidal dose-response in GraphPad Prism.
Statistical analyses were performed on at least three individual datasets and analysed using GraphPad Prism software. Bars represent differences in the calculated agonist potency (pEC50) and maximum agonist response (Emax) for each mutant relative to the WT receptor. Data are mean± s.e.m. from at least three independent experiments, performed in triplicates. ns, not significant, ^nsP > 0.01; ^*P < 0.01; ^**P < 0.001; ^***P < 0.0001 (one-way analysis of variance (ANOVA) followed by Dunnett’s test, compared with the response of the WT). For dose-response experiments, data were normalized and analyzed using nonlinear curve fitting for the log (agonist) versus response (three parameters) curves.

Compound	Emax	EC50 [nM]
AVAEHQLMHQRAKWLNSMERVEWLRKKLQDVHNF [LAPTH(1-14,I5H)/PTH(15-34)]	129.6 luminescence counts per 500ms	0.643
SVSEHQLMHNLGKHIQDARRRAFLHKLIAEIHTAEI [LA-PTH (I5H-PTH;NT)]	102.1 luminescence counts per 500ms	1.98
AVSEHQLMHQRAKWIQDARRRAFLHKLIAEIHTAEI [LAPTH(I5H;A3S)]	125.3 luminescence counts per 500ms	0.39
AVAEHQLMHQRAKWIQDLRRRFFLHHLIAEIHTAEI-NH2 [LAPTH(1-14,I5H)/PTHrP(15-34)]	142.8 luminescence counts per 500ms	1.76
CC[C@H](C)[C@H](NC(=O)[C@H](CO)NC(=O)[C@H](CCCCN)NC(=O)CNC(=O)[C@H](CCCCN)NC(=O)[C@H](CC(=O)O)NC(=O)[C@H](Cc1c[nH]cn1)NC(=O)[C@H](CC(C)C)NC(=O)[C@H](CC(C)C)NC(=O)[C@H](CCC(N)=O)NC(=O)[C@@H](NC(=O)[C@H](CCC(=O)O)NC(=O)[C@H](CO)NC(=O)[C@@H](NC(=O)[C@H](C)N)C(C)C)[C@@H](C)CC)C(=O)N[C@@H](CCC(N)=O)C(=O)N[C@@H](CC(=O)O)C(=O)N[C@@H](CC(C)C)C(=O)N[C@@H](CCCNC(=N)N)C(=O)N[C@@H](CCCNC(=N)N)C(=O)N[C@@H](CCCNC(=N)N)C(=O)N[C@@H](CCC(=O)O)C(=O)N[C@@H](CC(C)C)C(=O)N[C@@H](CC(C)C)C(=O)N[C@@H](CCC(=O)O)C(=O)N[C@@H](CCCCN)C(=O)N[C@@H](CC(C)C)C(=O)N[C@@H](CC(C)C)C(=O)NC(C)(C)C(=O)N[C@@H](CCCCN)C(=O)N[C@@H](CC(C)C)C(=O)N[C@@H](Cc1c[nH]cn1)C(=O)N[C@H](C(=O)N[C@@H](C)C(N)=O)[C@@H](C)O [ABL(H5I)] (H-AVSEIQLLHDKGKSIQDLRRRELLEKLL[Aib]KLHTA-NH2)	104.1 luminescence counts per 500ms	0.32
AVAEHQLMHQRGKWIQDARRRAFLHKLIAEIHTAEI [LAPTH(I5H;A12G)]	129.5 luminescence counts per 500ms	2.08
AVAEHQLMHQRAKWIQDARRRAFLHKLIAEIHTAEI [LAPTH(I5H)]		0.183
SVAEHQLMHQRAKWIQDARRRAFLHKLIAEIHTAEI [LAPTH(I5H;A1S)]	119.8 luminescence counts per 500ms	1.84

Continued, values first:

Emax	EC50 [nM]	Compound
117.7 luminescence counts per 500ms	1.4	AVAEHQLMHNRAKWIQDARRRAFLHKLIAEIHTAEI [LAPTH(I5H;Q10N)]
117.8 luminescence counts per 500ms	0.493	AVAEHQLMHQRAKHIQDARRRAFLHKLIAEIHTAEI [LAPTH(I5H;W14H)]
	3.45	AVAEIQLLHQRAKWIQDARRRAFLHKLIAEIHTAEI [LAPTH(M8L)]
	23.6	CSCC[C@H](NC(=O)[C@H](CC(C)C)NC(=O)[C@H](CCC(N)=O)NC(=O)[C@H](Cc1c[nH]cn1)NC(=O)[C@H](CCC(=O)O)NC(=O)[C@H](CO)NC(=O)[C@@H](NC(=O)[C@@H](N)CO)C(C)C)C(=O)N[C@@H](Cc1c[nH]cn1)C(=O)N[C@@H](CC(N)=O)C(=O)N[C@@H](CC(C)C)C(=O)NCC(=O)N[C@@H](CCCCN)C(=O)N[C@@H](Cc1c[nH]cn1)C(=O)N[C@@H](CC(C)C)C(=O)N[C@@H](CC(N)=O)C(=O)N[C@@H](CO)C(=O)N[C@@H](CCSC)C(=O)N[C@@H](CCC(=O)O)C(=O)N[C@@H](CCCNC(=N)N)C(=O)N[C@H](C(=O)N[C@@H](CCC(=O)O)C(=O)N[C@@H](Cc1c[nH]c2ccccc12)C(=O)N[C@@H](CC(C)C)C(=O)N[C@@H](CCCNC(=N)N)C(=O)N[C@@H](CCCCN)C(=O)N[C@@H](CCCCN)C(=O)N[C@@H](CC(C)C)C(=O)N[C@@H](CCC(N)=O)C(=O)N[C@@H](CC(=O)O)C(=O)N[C@H](C(=O)N[C@@H](Cc1c[nH]cn1)C(=O)N[C@@H](CC(N)=O)C(=O)N[C@@H](Cc1ccccc1)C(=O)O)C(C)C)C(C)C [PTH(I5H)]
107.5 luminescence counts per 500ms		AVAEIQLLMHQRAKSIQDARRRAFLHKLIAEIHTAEI [LAPTH(W14H)]
106.9 luminescence counts per 500ms	2.08	AVAEHQLMHQLAKWIQDARRRAFLHKLIAEIHTAEI [LAPTH(I5H;R11L)]
